Source: ChEMBL document CHEMBL2363022, “Malaria Box Schistosomiasis Screening Data” (2013)

Experiments:
Format in all cases: functional
[1] = test system: Schistosoma mansoni; parameters: scale not given here
[2] = test system: Schistosoma mansoni; parameters: scale not given here; remark: listed apart in the source
[3] = test system: Schistosoma mansoni; parameters: scale not given here; remark: listed apart in the source
[4] = test system: Schistosoma mansoni; assay: MMV: Toxicity @ 5 uM to 4-5 Schistosoma mansoni adult males after 24 h on a scale of 0 (none) - 4 (most). Includes short descriptors of effects as judged visually (PMID:19597541). Only those Malaria box 'drug-like' cpds yielding the most severe phenotypes vs. somules were tested. Caffrey group UCSF.
[5] = test system: Schistosoma mansoni; assay: MMV: Toxicity @ 5 uM to 4-5 Schistosoma mansoni adult males after 48 h on a scale of 0 (none) - 4 (most). Includes short descriptors of effects as judged visually (PMID:19597541). Only those Malaria box 'drug-like' cpds yielding the most severe phenotypes vs. somules were tested. Caffrey group UCSF.
[6] = test system: Schistosoma mansoni; assay: MMV: Toxicity @ 5 uM to 4-5 Schistosoma mansoni adult males after 72 h on a scale of 0 (none) - 4 (most). Includes short descriptors of effects as judged visually (PMID:19597541). Only those Malaria box 'drug-like' cpds yielding the most severe phenotypes vs. somules were tested. Caffrey group UCSF.
[7] = test system: Schistosoma mansoni; assay: (§1) MMV: Motility assay. Percent change (relative to DMSO controls) @ 5 uM of movement of 4-5 Schistosoma mansoni adult males after 24 h as measured by the Consensus Voting Luminance Difference algorithm available on WormAssay (PMID:22303493). Occasional incongruence ocurrs between the motility scores and the visually adjudicated 'toxicity scores'. In these cases the 'toxicity score' should be prioritized. Only those Malaria box 'Drug-like' cpds yielding the most severe phenotypes vs. somules were tested. Caffrey group UCSF.
[8] = test system: Schistosoma mansoni; assay: as §1, with “48” for “24”
[9] = test system: Schistosoma mansoni; assay: as §1, with “72” for “24”

Structure (SMILES) | Toxicity [1] | Toxicity [2] | Toxicity [3] | Toxicity [4] | Toxicity [5] | Toxicity [6] | Motility [7] | Motility [8] | Motility [9]
CN(C)CCCNCc1ccc(-c2ccc(F)c(Cl)c2)o1.Cl | 2 | 3 | 3 | 2 | 2 | 2 | 26.2 | 62.2 | 65.7
CC(C)(C)CC(C)(C)NCC(O)COc1ccc(Cl)cc1Cl (stereo unspecified) | 0 | 4 | 4 | 0 | 1 | – | – | 53 | –
Cc1ccc(N2C(=O)C3C(C2=O)C2(c4ccccc4)C(=O)C3(c3ccccc3)C(c3ccccc3)=C2c2ccccc2)cc1 (stereo unspecified) | 1 | 1 | 1 | – | – | – | – | – | –
c1ccc(Cn2c(N=Nc3c(Nc4ccccc4)ccc4ccccc34)nc3ccccc32)cc1 | 0 | 0 | 0 | – | – | – | – | – | –
CCCN(CCC)CCCNC(=O)c1cc2c(-c3ccc(OC)c(OC)c3)nn(C)c2s1 | 0 | 0 | 3 | – | – | – | – | – | –
CCOC(=O)c1c(C)n(-c2ccc(Cl)cc2)c2ccc(OC(=O)C=Cc3ccccc3)cc12 | 0 | 0 | 0 | – | – | – | – | – | –
CCOc1cc2c(cc1OCC)C(c1cc(Cl)ccc1O)NCC2 (stereo unspecified) | 0 | 1 | 0 | – | – | – | – | – | –
O=C(CCc1ccco1)NC1CCN(CC2(c3ccc(Cl)cc3)CCC2)CC1 | 0 | 0 | 0 | – | – | – | – | – | –
Cc1ccc(C2CC(C(F)(F)F)n3nc(C(=O)N4CCN(C(c5ccccc5)c5ccccc5)CC4)cc3N2)cc1 (stereo unspecified) | 0 | 0 | 0 | – | – | – | – | – | –
CCOC(=O)C1(Cc2ccccc2)CCN(Cc2cccc(OC)c2O)CC1 | 1 | 1 | 2 | – | – | – | – | – | –
CC(C)CCNCC(O)Cn1c2ccccc2c2ccccc21.Cl (stereo unspecified) | 2 | 4 | 4 | – | – | – | – | – | –
Cc1cc(N(C)C)nc(Nc2ccc(NC(=O)Nc3ccccc3)cc2)n1 | 0 | 3 | 3 | – | – | – | – | – | –
Cc1ccc(S(=O)(=O)c2c(COC(=O)c3cccc(C)c3)c(-c3ccccc3)nn2C)cc1 | 0 | 0 | 0 | – | – | – | – | – | –
O=C(NCc1ccco1)C1CCN(S(=O)(=O)c2ccc(Br)cc2)CC1 | 0 | 0 | 0 | – | – | – | – | – | –
O=C(CCl)NCCOc1ccc(Cl)cc1Cl | 0 | 3 | 4 | – | – | – | – | – | –
CN1c2ccccc2N(C)C1c1ccc2c(c1)OCO2 | 1 | 0 | 0 | – | – | – | – | – | –
CCN(CC)c1ccc(NC(=O)c2cccs2)cc1 | 0 | 0 | 0 | – | – | – | – | – | –
OC(CNC1CCCCC1)Cn1c2ccccc2c2ccccc21 (stereo unspecified) | 0 | 0 | 0 | – | – | – | – | – | –
COc1ccccc1CNC(=O)CCn1c(=O)[nH]c2ccsc2c1=O | 0 | 0 | 0 | – | – | – | – | – | –
Cc1cc(NC(=O)c2cccc(C(F)(F)F)c2)n(-c2nc(-c3ccc4c(c3)OCO4)cs2)n1 | 0 | 0 | 3 | – | – | – | – | – | –

Structure (SMILES) | Toxicity [1] | Toxicity [2] | Toxicity [3] | Toxicity [4] | Toxicity [5] | Toxicity [6] | Motility [7] | Motility [8] | Motility [9]
COc1ccc2nc(C)cc(Nc3cccc(O)c3)c2c1.Cl | 2 | 0 | 0 | – | – | – | – | – | –
CCCc1c(C)nc2ccccc2c1O | 0 | 0 | 0 | – | – | – | – | – | –
N=c1c2ccccc2nnn1-c1cccc(C(F)(F)F)c1 | 0 | 0 | 0 | – | – | – | – | – | –
CCCCCCC(O)(c1ccc(F)cc1)C(CN1CCOCC1)c1ccccc1.Cl (stereo unspecified) | 0 | 0 | 0 | – | – | – | – | – | –
O=C(Nc1ccc(Cl)cc1C(=O)Nc1ccncc1)c1ccc(Cl)cc1Cl | 0 | 0 | 0 | – | – | – | – | – | –
CCCOCc1cc(CN2CCN(c3cccc(Cl)c3)CC2)c(O)c2ncccc12 | 3 | 4 | 4 | – | – | – | – | – | –
CCOc1ccc2nc(C)cc(Nc3ccc(Br)cc3)c2c1 | 2 | 4 | 4 | – | – | – | – | – | –
COc1cc(OC)cc(N2C(=O)N(Cc3ccc(C(C)(C)C)cc3)c3ccccc3S2(=O)=O)c1 | 0 | 0 | 0 | – | – | – | – | – | –
OC(CNC1CCCCC1)Cn1c2ccc(I)cc2c2cc(I)ccc21 (stereo unspecified) | 4 | 4 | 4 | – | – | – | – | – | –
CC1CCN(Cc2c(O)ccc3cc(-c4nc5ccccc5s4)c(=O)oc23)CC1 | 0 | 0 | 0 | – | – | – | – | – | –
CCCCCCc1cc2cc(-c3csc(C=Cc4ccccc4)n3)c(=O)oc2cc1O | 0 | 0 | 0 | – | – | – | – | – | –
CC(C)(C)c1ccc(C(=O)Nc2c3c(nn2-c2cccc(Cl)c2)CSC3)cc1 | 0 | 0 | 0 | – | – | – | – | – | –
COc1ccc(C)c2sc(N(Cc3cccnc3)C(=O)c3ccc(C#N)cc3)nc12 | 0 | 0 | 0 | – | – | – | – | – | –
COc1cccc(C(=O)Nc2ccc(-c3nc4ccccc4[nH]3)cc2)c1 | 0 | 0 | 0 | – | – | – | – | – | –
O=C(CCc1ccccc1)c1ccccc1OCC(O)CN1CCCCC1 (stereo unspecified) | 1 | 0 | 4 | – | – | – | – | – | –
COc1ccccc1N1C(=N)SC(=Cc2ccc(OCc3ccccc3F)cc2)C1=O | 0 | 0 | 0 | – | – | – | – | – | –
COc1ccc(OC)c(C2C3=C(CC(C)(C)CC3=O)N(c3ccc(Cl)c(Cl)c3)C3=C2C(=O)CC(C)(C)C3)c1 | 1 | 0 | 1 | – | – | – | – | – | –
COc1ccc(-c2cc3c(nn2)-c2ccccc2C3=O)cc1 | 0 | 0 | 0 | – | – | – | – | – | –
CCCCCn1c(=N)n(CC(O)COc2cccc(C)c2)c2ccccc21.Cl (stereo unspecified) | 2 | 4 | 4 | – | – | – | – | – | –
COc1ccc(C(=O)Nc2ccc3nc(N4CCCCC4)cc(C)c3c2)cc1OC | 0 | 0 | 0 | – | – | – | – | – | –

Structure (SMILES) | Toxicity [1] | Toxicity [2] | Toxicity [3] | Toxicity [4] | Toxicity [5] | Toxicity [6] | Motility [7] | Motility [8] | Motility [9]
Cc1ccc(Cl)cc1N1CCN(CCCNC(=O)C2CCN(c3nc4ccccc4[nH]3)CC2)CC1 | 0 | 0 | 3 | – | – | – | – | – | –
CCc1ccc(CNCC(O)c2ccccc2)cc1.Cl (stereo unspecified) | 1 | 0 | 1 | – | – | – | – | – | –
CCOC(=O)c1cnc2ccc(CC)cc2c1O | 0 | 0 | 0 | – | – | – | – | – | –
CCOC(=O)c1cnc2c(C)cc(C)cc2c1Nc1ccc(OC)c(OC)c1 | 0 | 2 | 0 | – | – | – | – | – | –
COc1ccc(C2N(C)c3ccccc3N2C)cc1 | 0 | 0 | 0 | – | – | – | – | – | –
CCC(C)NCC(O)(c1ccc(Cl)cc1)c1ccc(Cl)cc1 (stereo unspecified) | 1 | 0 | 0 | – | – | – | – | – | –
C=C(C)CCC(C)N1CCC(N2CCC(C(=O)NCCc3ccccc3)CC2)CC1 (stereo unspecified) | 0 | 0 | 2 | – | – | – | – | – | –
Cc1ccc(Nc2nc(-c3ccccn3)cs2)cc1 | 0 | 0 | 0 | – | – | – | – | – | –
COc1ccc(C(=O)C2CC2c2ccc(Cl)cc2)cc1 (stereo unspecified) | 0 | 0 | 0 | – | – | – | – | – | –
COc1ccc(-c2nc(NC(=O)CS(=O)(=O)c3ccc(F)cc3)sc2C)cc1 | 0 | 0 | 0 | – | – | – | – | – | –
COc1ccc2c(c1)OC(O)(C(F)(F)C(F)(F)F)CC2=O (stereo unspecified) | 0 | 0 | 0 | – | – | – | – | – | –
COc1ccc(-c2c(C)nn3c(N)c(C#N)cnc23)cc1OC | 1 | 1 | 1 | – | – | – | – | – | –
CCC(=O)Nc1nnc(Cc2ccc(OC)c(OC)c2)s1 | 0 | 0 | 0 | – | – | – | – | – | –
CCOc1ccc(-c2nonc2NC(=O)c2cccc(C)c2)cc1OCC | 0 | 0 | 0 | – | – | – | – | – | –
Cc1c(C)n(CC(O)CNC2CCCCC2C)c2ccccc12 (stereo unspecified) | 0 | 0 | 0 | – | – | – | – | – | –
Cc1ccc(F)cc1NC(=O)c1cc(Cl)ccc1Nc1ccccc1 | 0 | 0 | 0 | – | – | – | – | – | –
COc1cc(CNCCc2ccc(Cl)cc2)cc(OC)c1O | 0 | 0 | 0 | – | – | – | – | – | –
CCOC(=O)C1CCN(C(=O)CN2C(=O)c3ccccc3C2c2c[nH]c3ccccc23)CC1 (stereo unspecified) | 0 | 0 | 0 | – | – | – | – | – | –
Clc1ccc2[nH]c3c(NCCCN4CCOCC4)ncnc3c2c1 | 0 | 0 | 0 | – | – | – | – | – | –
